Measured values as given in ChEMBL document CHEMBL3627619, “Synthesis and biological profiling of 6- or 7-(het)aryl-7-deazapurine 4'-C-methylribonucleosides” (Bioorg Med Chem, 2015).

What was measured:
Hepatitis C virus = test: Antiviral activity against Hepatitis C virus subtype 1b replicon infected in human HuH7 cells; type: functional, cell-based, Hepacivirus hominis; conditions: genotype 1b, Huh-7
[1] = Cytotoxicity against human BJ cells after 3 days by MTT assay; type: cell-based
[2] = Cytotoxicity against human MRC5 cells after 3 days by MTT assay; type: cell-based
CCRF-CEM = test: Cytotoxicity against human CCRF-CEM cells after 3 days by MTT assay; type: functional, cell-based; conditions: 72 h
[3] = Cytotoxicity against human CEM/DNR cells after 3 days by MTT assay; type: functional, cell-based; conditions: 72 h
K562 = test: Cytotoxicity against human K562 cells after 3 days by MTT assay; type: functional, cell-based; conditions: K562, 72 h
[4] = Cytotoxicity against human K562-TAX cells after 3 days by MTT assay; type: functional, cell-based; conditions: 72 h
A549 = test: Cytotoxicity against human A549 cells after 3 days by MTT assay; type: functional, cell-based; conditions: A549, 72 h
HCT-116 [5] = test: Cytotoxicity against human HCT116 cells after 3 days by MTT assay; type: functional, cell-based; conditions: HCT-116, 72 h
HCT-116 [6] = test: Cytotoxicity against p53 deficient human HCT116 cells after 3 days by MTT assay; type: functional, cell-based; conditions: HCT-116, 72 h
[7] = Cytotoxicity against human HuH7 cells; type: cell-based, Huh-7
dengue virus type 2 = test: Antiviral activity against DENV2 infected in African green monkey Vero cells; type: functional, organism-based
[8] = Cytotoxicity against African green monkey Vero cells; type: cell-based; conditions: chlorocebus sabaeus
[9] = Selectivity index, ratio of CC50 for human HuH7 cells to EC50 for Hepatitis C virus subtype 1b replicon infected in human HuH7 cells; type: toxicity, cell-based, Huh-7; conditions: read-out: Ratio CC50/EC50

Structure (SMILES)	EC50 (Hepatitis C virus) [µM]	EC50 (dengue virus type 2) [µM]	CC50 at 72 h [1] [µM]	CC50 at 72 h [2] [µM]	IC50 (CCRF-CEM) [µM]	IC50 [3] [µM]	IC50 (K562) [µM]	IC50 [4] [µM]	IC50 (A549) [µM]	IC50 (HCT-116 [5]) [µM]	IC50 (HCT-116 [6]) [µM]	CC50 [7] [µM]	CC50 [8] [µM]	selectivity ratio [9]
CCOC(=O)[C@H](C)NP(=O)(OC[C@@]1(C)O[C@@H](n2ccc3c(-c4cccs4)ncnc32)[C@H](O)[C@@H]1O)Oc1ccccc1 (stereo not given in full)	3.32		83.1	106	12.3	43.1	22.9	33.6	22.2	19.4	22	3.64		
CCOC(=O)[C@H](C)NP(=O)(OC[C@@]1(C)O[C@@H](n2cc(-c3cccs3)c3c(N)ncnc32)[C@H](O)[C@@H]1O)Oc1ccccc1 (stereo not given in full)	23.2											13		
CCOC(=O)[C@H](C)NP(=O)(OC[C@@]1(C)O[C@@H](n2ccc3c(-c4ccccc4)ncnc32)[C@H](O)[C@@H]1O)Oc1ccccc1 (stereo not given in full)	16.5	> 50	75.3	108	17.4	43.6	29.9	35.4	25.9	22.2	22.8	> 44	> 50	
C#Cc1cn([C@@H]2O[C@](C)(CO)[C@@H](O)[C@H]2O)c2ncnc(N)c12	6.27	4.59	126	125	30.3	38.4	31.1	27.4	9.55	8.79	10.2	32.2	13.4	
C[C@]1(CO)O[C@@H](n2cc(-c3ccco3)c3c(N)ncnc32)[C@H](O)[C@@H]1O	20	> 50										> 44	> 50	
C[C@]1(CO)O[C@@H](n2ccc3c(-c4cc5ccccc5o4)ncnc32)[C@H](O)[C@@H]1O	7.62	> 50										> 44	> 50	

The next lines start with results.

EC50 (Hepatitis C virus) [µM]	EC50 (dengue virus type 2) [µM]	Structure (SMILES)	CC50 at 72 h [1] [µM]	CC50 at 72 h [2] [µM]	IC50 (CCRF-CEM) [µM]	IC50 [3] [µM]	IC50 (K562) [µM]	IC50 [4] [µM]	IC50 (A549) [µM]	IC50 (HCT-116 [5]) [µM]	IC50 (HCT-116 [6]) [µM]	CC50 [7] [µM]	CC50 [8] [µM]	selectivity ratio [9]
40.6	> 50	C[C@]1(CO)O[C@@H](n2cc(-c3ccsc3)c3c(N)ncnc32)[C@H](O)[C@@H]1O										> 44	> 50	
17.9	> 50	C[C@]1(CO)O[C@@H](n2cc(-c3cccs3)c3c(N)ncnc32)[C@H](O)[C@@H]1O										> 44	> 50	
3.75	5.55	C[C@]1(CO)O[C@@H](n2cc(I)c3c(N)ncnc32)[C@H](O)[C@@H]1O	42.4	40.8	10.2	27.9	20.4	9.46	5.92	5.25	5.87	27.1	8.08	7.2
> 44		CCOC(=O)[C@H](C)NP(=O)(OC[C@@]1(C)O[C@@H](n2cc(-c3ccco3)c3c(N)ncnc32)[C@H](O)[C@@H]1O)Oc1ccccc1 (stereo not given in full)										20.8		
18		CCOC(=O)[C@H](C)NP(=O)(OC[C@@]1(C)O[C@@H](n2cc(-c3ccccc3)c3c(N)ncnc32)[C@H](O)[C@@H]1O)Oc1ccccc1 (stereo not given in full)										9.1		
4.48	10.1	C[C@]1(CO)O[C@@H](n2cc(-c3cc4ccccc4o3)c3c(N)ncnc32)[C@H](O)[C@@H]1O	104	83.7	16.6	8.94	9.64	8.82	7.13	9.75	10.7	31.1	27	
17.6	> 50	CCOC(=O)[C@H](C)NP(=O)(OC[C@@]1(C)O[C@@H](n2ccc3c(-c4ccco4)ncnc32)[C@H](O)[C@@H]1O)Oc1ccccc1 (stereo not given in full)										27.9	> 50	
